Data: patent publication US20110294799A1, “Organic Compounds” (NOVARTIS AG, priority 2007, published 2011)

What was measured:
[1] = biological target: T1, GABA-A alpha1 receptor (alpha 1 subunit together with a beta and a gamma subunit) (Homo sapiens, UniProt P14867+P18507); experiment: GABA-A receptor modulation, voltage-sensitive dye fluorescence in transfected eukaryotic cell line (alpha1); type: cell-based; conditions: compounds at 3 μM, sub-maximal concentration of GABA (EC20); for activation at 3 µM: read-out: alpha1 % mod (percentage of increase of the fluorescent signal compared to signal without the agent)
T1 construct: expressed in transfected cells
T1 sequence (P14867 28-456): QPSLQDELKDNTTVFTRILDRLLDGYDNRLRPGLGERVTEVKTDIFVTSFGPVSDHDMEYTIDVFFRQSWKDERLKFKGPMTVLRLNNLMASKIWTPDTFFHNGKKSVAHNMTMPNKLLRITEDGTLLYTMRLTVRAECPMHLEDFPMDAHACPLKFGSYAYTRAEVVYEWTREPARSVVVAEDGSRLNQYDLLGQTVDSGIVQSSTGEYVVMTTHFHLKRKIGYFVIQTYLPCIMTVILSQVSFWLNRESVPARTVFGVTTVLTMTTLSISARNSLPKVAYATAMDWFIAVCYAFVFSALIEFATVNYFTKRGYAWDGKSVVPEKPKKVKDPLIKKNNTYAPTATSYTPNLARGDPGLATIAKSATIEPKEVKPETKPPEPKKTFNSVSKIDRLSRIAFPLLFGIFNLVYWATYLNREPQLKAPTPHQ
T1 sequence (P47870 25-512 partner limits assumed): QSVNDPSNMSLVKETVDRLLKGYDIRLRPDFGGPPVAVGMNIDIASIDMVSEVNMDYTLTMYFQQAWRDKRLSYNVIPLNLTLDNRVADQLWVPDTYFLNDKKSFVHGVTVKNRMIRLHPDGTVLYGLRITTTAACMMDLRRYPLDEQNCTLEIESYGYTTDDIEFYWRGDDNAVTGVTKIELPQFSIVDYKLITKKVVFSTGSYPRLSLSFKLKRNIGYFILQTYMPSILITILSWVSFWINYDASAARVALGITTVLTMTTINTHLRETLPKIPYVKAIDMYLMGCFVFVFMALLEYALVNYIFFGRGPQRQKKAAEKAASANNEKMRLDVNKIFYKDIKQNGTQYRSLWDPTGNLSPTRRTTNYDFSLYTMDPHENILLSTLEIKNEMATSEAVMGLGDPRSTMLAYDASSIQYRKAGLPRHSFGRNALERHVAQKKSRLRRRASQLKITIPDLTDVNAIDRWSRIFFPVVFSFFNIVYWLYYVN
T1 sequence (P18507 40-467 limits assumed): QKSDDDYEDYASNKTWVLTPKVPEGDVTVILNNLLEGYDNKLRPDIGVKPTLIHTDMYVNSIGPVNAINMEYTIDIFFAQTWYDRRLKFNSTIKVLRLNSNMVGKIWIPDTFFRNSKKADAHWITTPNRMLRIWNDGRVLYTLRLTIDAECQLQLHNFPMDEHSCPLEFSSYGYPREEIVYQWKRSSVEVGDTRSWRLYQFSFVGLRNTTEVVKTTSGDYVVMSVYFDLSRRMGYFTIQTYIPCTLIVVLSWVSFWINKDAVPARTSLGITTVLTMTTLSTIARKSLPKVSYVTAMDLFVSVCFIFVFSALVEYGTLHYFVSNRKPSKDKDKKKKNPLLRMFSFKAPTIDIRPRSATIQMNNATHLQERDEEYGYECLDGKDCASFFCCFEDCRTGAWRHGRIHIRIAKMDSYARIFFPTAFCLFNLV
Text: (§1) GABA-A receptor modulators show in functional assays a positive modulation of GABA-induced signals. This modulation can be determined in vitro, e.g., at recombinant GABA-A receptors expressed in a mammalian cell line, e.g. by measurement of GABA-A receptor induced changes of the trans-membrane voltage, when using a voltage-sensitive dye and a fluorescence detection system (Adkins, C. E., Pillai, G. V., Kerby, J., Bonnert, T. P., Haldon, C., Mckernan, R. M., Gonzalez, J. E., Oades, K., Whiting, P. J. & Simpson, P. B. [2001]. alpha4beta3delta GABA-A receptors characterized by fluorescence resonance energy transfer-derived measurements of membrane potential. J. Biol. Chem., 276, 38934-38939). In this assay, a modulator compound is pre-applied at different concentrations ranging from 0.1 nM to 10 μM to cells expressing GABA-A receptors and loaded with the voltage-sensitive dye, before, or at the same time as, a sub-maximal concentration of GABA (in the range of from 0.1 to 10 μM) is applied to the cells. The fluorescent signal is correlated with the degree of GABA-A receptor channel opening. This allows the quantification of effects induced by the modulator in a functional manner. By expression of different GABA-A receptor subunit combinations, the differential efficacy of a modulator at different GABA-A receptor variants can be tested. Other functional assays include the electrophysiological recording of Xenopus oocytes or mammalian cells expressing respective receptor variants. In addition, ion flux detectors can be used to functionally study GABA-A receptors in heterologous expression systems. The affinity of a compound to the GABA-A receptor can be measured in radioligand binding experiments using reference ligands containing a radioactive element, e.g., tritiated flumazenil, and intact cells or membrane preparations of cells expressing GABA-A receptors.
(§2) Activity and selectivity of a GABA-A receptor modulator according to the invention can, e.g., be determined in vitro as follows: A transfected eukaryotic cell line expressing the alpha1, alpha2 or alpha3 subunit of the GABA-A receptor together with a beta and a gamma subunit of the GABA-A receptor is incubated with a voltage-sensitive dye, and the effects of an agonist (typically GABA) or modulator addition are recorded in a fluorimetric plate reader. The opening of the GABA-A receptor channel and the subsequent flux of anions through it changes the trans-membrane voltage of the transfected cells, leading to a change in the fluorescent signal of the voltage-sensitive dye. In the presence of the agent of the invention, a sub-maximal concentration of GABA (e.g. an EC20 or an EC50) added to transfected cells expressing the alpha1, alpha2 or alpha3 subunit of the GABA-A receptor will elicit an at least 50%, preferably an at least 80%, ideally an at least 100%, increase, of the fluorescent signal, compared to the fluorescent signal obtained without the agent of the invention. In this assay, agents of the invention modulate the GABA-induced response at concentration from about 0.1 to about 10′000 nM.

[2] = biological target: T2, GABA-A alpha2 receptor (alpha 2 subunit together with a beta and a gamma subunit) (Homo sapiens, UniProt P18507+P47869); experiment: GABA-A receptor modulation, voltage-sensitive dye fluorescence in transfected eukaryotic cell line (alpha2); type: cell-based; conditions: compounds at 3 μM, sub-maximal concentration of GABA (EC20); for activation at 3 µM: read-out: alpha2 % mod (percentage of increase of the fluorescent signal compared to signal without the agent)
T2 construct: expressed in transfected cells
T2 sequence (P47869 29-451): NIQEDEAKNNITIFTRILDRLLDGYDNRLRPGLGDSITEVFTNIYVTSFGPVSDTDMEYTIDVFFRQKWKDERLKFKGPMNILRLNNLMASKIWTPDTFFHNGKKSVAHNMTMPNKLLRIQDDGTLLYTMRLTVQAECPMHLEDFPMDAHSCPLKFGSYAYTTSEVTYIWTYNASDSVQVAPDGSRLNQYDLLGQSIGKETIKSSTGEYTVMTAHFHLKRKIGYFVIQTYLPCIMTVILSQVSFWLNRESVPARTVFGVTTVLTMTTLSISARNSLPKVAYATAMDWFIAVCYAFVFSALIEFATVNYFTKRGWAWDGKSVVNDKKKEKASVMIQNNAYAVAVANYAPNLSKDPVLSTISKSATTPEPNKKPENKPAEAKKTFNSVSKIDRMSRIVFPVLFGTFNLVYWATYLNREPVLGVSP
T2 sequence (P47870 25-512 partner limits assumed): T1 sequence (P47870 25-512 partner limits assumed)
T2 sequence (P18507 40-467 limits assumed): T1 sequence (P18507 40-467 limits assumed)
Text: as §1, §2

Structure (SMILES) | activation at 3 µM [1] [%] | activation at 3 µM [2] [%] | alpha1 % mod (percentage of increase of the fluorescent signal compared to signal without the agent) [1] [% mod] | alpha2 % mod (percentage of increase of the fluorescent signal compared to signal without the agent) [2] [% mod]
N#Cc1ccc2ncc3c(OCc4ccc(Cl)cc4)n(-c4ccccc4)nc3c2c1 [Example 32, 3-[(4-chlorobenzyl)oxy]-2-phenyl-2H-pyrazolo[4,3-c]quinoline-8-carbonitrile] | 34 | 88 | – | –
Clc1ccc(-n2nc3c(cnc4ccc(-n5ccnc5)cc43)c2OCCc2ccccc2Cl)cc1 [Example 114, 2-(4-Chloro-phenyl)-3-[2-(2-chloro-phenyl)-ethoxy]-8-imidazol-1-yl-2H-pyrazolo[4,3-c]quinoline] | 108 | 129 | – | –
COc1ccc(-n2nc3c(cnc4ccccc43)c2OCc2ccc(Cl)cc2)cc1 [Example 89, 3-(4-Chloro-benzyloxy)-2-(4-methoxy-phenyl)-2H-pyrazolo[4,3-c]quinoline] | 23 | 69 | – | –
Clc1ccc(-n2nc3c(cnc4ccc(-n5ccnc5)cc43)c2OCC2CCCC2)cc1 [Example 113, 2-(4-Chloro-phenyl)-3-cyclopentylmethoxy-8-imidazol-1-yl-2H-pyrazolo[4,3-c]quinoline] | 63 | 88 | – | –
COc1ccc(-n2nc3c(cnc4ccccc43)c2OCc2ccc(C(F)(F)F)cc2)cc1 [Example 1, 2-(4-Methoxy-phenyl)-3-(4-trifluoromethyl-benzyloxy)-2H-pyrazolo[4,3-c]quinoline] | 5 | 36 | – | –
Clc1ccccc1COc1c2cnc3ccccc3c2nn1-c1ccccn1 [Example 34, 3-[(2-chlorobenzypoxy]-2-pyridin-2-y1-2H-pyrazolo[4,3-c]quinoline] | – | – | 13 | 57
Fc1ccc(-n2nc3c(cnc4ccccc43)c2OCc2ccccc2F)cc1 [Example 28, 3-[(2-fluorobenzyl)oxy]-2-(4-fluorophenyl)-2H-pyrazolo[4,3-c]quinoline] | 34 | 146 | – | –
Clc1ccc(-n2nc3c(cnc4ccc(Br)cc43)c2OCc2ccccc2Cl)cc1 [Example 115, 8-Bromo-3-(2-chloro-benzyloxy)-2-(4-chloro-phenyl)-2H-pyrazolo[4,3-c]quinoline] | 26 | 66 | – | –
Fc1ccc(-n2nc3c(cnc4ccccc43)c2OCc2ccccc2Cl)cc1 [Example 63, 3-[(2-chlorobenzyl)oxy]-2-(4-fluorophenyl)-2H-pyrazolo[4,3-c]quinoline] | 9 | 60 | – | –
CCCCOc1c2cnc3ccccc3c2nn1-c1ccccc1 [Example 4, 3-butoxy-2-phenyl-2H-pyrazolo[4,3-c]quinoline] | 137 | 126 | – | –
Clc1ccc(-n2nc3c(cnc4ccccc43)c2OCC2CCCC2)cc1 [Example 91, 2-(4-Chloro-phenyl)-3-cyclopentylmethoxy-2H-pyrazolo[4,3-c]quinoline] | 55 | 84 | – | –
COc1ccc(-n2nc3c(cnc4ccccc43)c2OCc2ccccc2Cl)cc1 [Example 61, 3-[(2-chlorobenzyl)oxy]-2-(4-methoxyphenyl)-2H-pyrazolo[4,3-c]quinoline] | 52 | 145 | – | –
Clc1ccc(-n2nc3c(cnc4ccc(-n5ccnc5)cc43)c2OCC2CC2)cc1 [Example 96, 2-(4-Chloro-phenyl)-3-cyclopropylmethoxy-8-imidazol-1-yl-2H-pyrazolo[4,3-c]quinoline] | 119 | 162 | – | –
COc1ccc(-n2nc3c(cnc4ccccc43)c2OCc2ccncc2)cc1 [Example 60, 2-(4-methoxyphenyl)-3-(pyridin-4-ylmethoxy)-2H-pyrazolo[4,3-c]quinoline] | 64 | 177 | – | –
COc1ccc(-n2nc3c(cnc4ccccc43)c2OCCc2ccc(Cl)cc2)cc1 [Example 14, 3-[2-(4-chlorophenyl)ethoxy]-2-(4-methoxyphenyl)-2H-pyrazolo[4,3-c]quinoline] | 3 | 34 | – | –
COc1ccc(-n2nc3c(cnc4ccccc43)c2OCc2ccc(Cl)nc2)cc1 [Example 62, 3-[(6-chloropyridin-3-yl)methoxy]-2-(4-methoxypheny1)-2H-pyrazolo[4,3-c]quinoline] | – | – | 55 | 141
COc1ccc(-n2nc3c(cnc4ccccc43)c2OCCc2ccccc2Cl)cc1 [Example 15, 3-[2-(2-chlorophenyl)ethoxy]-2-(4-methoxyphenyl)-2H-pyrazolo[4,3-c]quinoline] | 23 | 197 | – | –
